Assay results as given in patent US10966995B2, “Use of secoisolariciresinol diglucosides (SDGS) and related compounds for protection against radiation and chemical damage” (THE TRUSTEES OF THE UNIVERSITY OF PENNSYLVANIA, priority 2014, dated 2021).
pEC50: −log10 of the molar value.

Columns and labels:
Plasmid DNA (pBR322) = experiment: Plasmid DNA relaxation assay after γ-radiation; format: biochemical; settings: for pEC50: 25 Gy γ radiation, 25-250 μM tested, read-out: EC50 (effective concentration needed to prevent 50% of plasmid relaxation); for SC and OC forms of plasmid DNA: 25 Gy, 25, 50, 100 and 250 μM
Procedure: (§1) Plasmid DNA (pBR322) or calf thymus DNA samples with or without varying concentrations of SDG (R,R), SDG (S,S) and SDG (commercial) were exposed to γ-radiation with a Mark 1 cesium (Cs-137) irradiator (J. L. Shepherd, San Fernando, Calif.) at a dose rate of 1.7 Gy/min in phosphate buffered saline, pH 7.4 (PBS).
The effect of test compounds on radiation-induced strand breaks and supercoil (SC) to open coil (OC) conversion was determined using plasmid DNA (pBR322) (Life Technologies, Carlsbad, Calif.). Plasmid DNA (500 ng) in PBS (pH 7.4) was mixed with various concentrations (25-250 μM) of SDG (R,R), SDG (S,S) and SDG (commercial) and irradiated at 25 Gy in PBS. At 30 min post radiation exposure, samples were mixed with loading dye and subjected to agarose (1%) gel electrophoresis in TAE buffer (pH, 8.3) at 100 V. The gel was stained with ethidium bromide (0.5 μg/ml) for 40 min, washed for 20 min and then visualized on a UV trans-illuminator (Bio-Rad, Hercules, Calif.). The captured gel images were scanned and the density of the open coiled (OC) and super coiled (SC) plasmid DNA bands determined by Gel-doc image analyzer program. The density of the SC and OC plasmid DNA was expressed as % of the total density (OC+SC).

calf thymus DNA [1] = experiment: Radiation-induced calf thymus DNA fragmentation assay; format: biochemical; settings: for Radioprotection in calf thymus DNA fragmentation assay at low concentrations / High mol. wt. DNA form after radiation exposure / Radioprotective properties of SDG and metabolites compared: 50 Gy; for Radioprotection in calf thymus DNA fragmentation assay at low concentrations: 0.5-10 μM; for High mol. wt. DNA form after radiation exposure: 25, 50, 100 and 250 μM; for Radiation-induced generation of low mol. wt. fragments: at the concentration of 5 (unit not given); for Radiation induced generation of low mol. wt. fragments: at the lowest concentration tested; for Radioprotective properties of SDG and metabolites compared: 10 μM of each agent
Procedure: as §1
The effect of test compounds on radiation-induced strand breaks in DNA was determined using calf thymus DNA (Sigma, St. Louis, Mo.). DNA (500 ng) in PBS (pH 7.4) was mixed with varying concentrations (25-250 μM) of SDG (R,R), SDG (S,S) and SDG (commercial) and irradiated at 50 Gy for 30 min. A second series of experiments were performed at varying concentrations ranging from 0.5-10 μM. Samples were mixed with loading dye and subjected to agarose (1%) gel electrophoresis in TAE buffer (pH, 8.3) at 100 V. The gel was stained with ethidium bromide (0.5 μg/ml) for 40 min, washed for 20 min and then visualized on a UV trans-illuminator (Bio-Rad, Hercules, Calif.). The captured gel images were scanned and the density of the calf thymus DNA fragments was determined by Gel-Pro image analyzer program (Media Cybernetics, Silver Spring, Md.). The density of the low mol. wt (<6,000 bps) and the high mol. wt (>6,000 bps) fragments of calf thymus DNA was expressed as % of the total density (low mol wt.+high mol. wt.).

[2] = Hypochlorite scavenging with APF/HPF fluorescent probes (sodium hypochlorite); settings: 0.5 μM; similar to silibinin
Procedure: The fluorescence of ROS probes APF and HPF in PBS was measured at excitation/emission at 490 nm/515 nm in presence of hypochlorite or after γ-radiation exposure. Data is expressed as relative fluorescence units (RFU).

calf thymus DNA [3] = experiment: Hypochlorite-induced damage to calf thymus DNA; format: biochemical; settings: 0.5 mM hypochlorite; test agents 1.0 μM
Procedure: Calf thymus or plasmid DNA was incubated with hypochlorite for 2 hrs at 37° C. DNA samples were subjected to agarose (1%) gel electrophoresis and analyzed.

human epithelial cells = experiment: BaP-induced DNA adduct formation; format: cell-based; settings: given alone or in combination
Text: Similarly, SDG prevents genotoxic stress in human epithelial cells exposed to BaP. Exposure of cells to a potent carcinogen such as BaP, induces genotoxic stress as indicated by increased levels of p53 protein (FIG. 25). […] SDG also prevents oxidative DNA damages in human epithelial cells exposed to BaP. Exposure of cells to a potent carcinogen such as BaP, induces oxidative DNA damage as indicated by increased levels of gamma-H2AX, a marker for double-stranded DNA breaks (FIG. 26). […] Furthermore, SDG prevents DNA adduct formation in human epithelial cells exposed to BaP. Exposure of cells to a potent carcinogen such as BaP, induces the formation of DNA adducts (FIG. 27). DNA adducts are pieces of DNA covalently linked to a carcinogen and is directly linked to the development of malignancy. The DNA adduct levels is decreased by the presence of SDG or its metabolites ED and EL given alone or in combination.

Structure (SMILES) | pEC50 (Plasmid DNA (pBR322)) | High mol. wt. DNA form after radiation exposure (calf thymus DNA [1]) | ClO^− scavenging potency [2] | Radioprotective properties of SDG and metabolites compared (calf thymus DNA [1]) | other results
COc1cc(C[C@@H](CO[C@@H]2O[C@H](CO)[C@@H](O)[C@H](O)[C@H]2O)[C@H](CO[C@@H]2O[C@H](CO)[C@@H](O)[C@H](O)[C@H]2O)Cc2ccc(O)c(OC)c2)ccc1O [SDG (R,R), secoisolariciresinol diglucoside] | 3.89 | radioprotective properties | comparable potency |  | SC and OC forms of plasmid DNA (Plasmid DNA (pBR322)): prevented the radiation-induced damage to plasmid DNA in a concentration-dependent manner; Radioprotection in calf thymus DNA fragmentation assay at low concentrations (calf thymus DNA [1]): strong radioprotection characteristics even at low concentrations; Radiation-induced generation of low mol. wt. fragments (calf thymus DNA [1]): completely prevented; Radiation induced generation of low mol. wt. fragments (calf thymus DNA [1]): completely prevented
COc1cc(C[C@H](CO[C@@H]2O[C@H](CO)[C@@H](O)[C@H](O)[C@H]2O)[C@@H](CO[C@@H]2O[C@H](CO)[C@@H](O)[C@H](O)[C@H]2O)Cc2ccc(O)c(OC)c2)ccc1O [SDG (S,S), secoisolariciresinol diglucoside] | 3.85 | the proportion of the high mol. wt. DNA form increased significantly | comparable potency |  | SC and OC forms of plasmid DNA (Plasmid DNA (pBR322)): the proportion of the SC form increased and the density of OC form decreased significantly; Radioprotection in calf thymus DNA fragmentation assay at low concentrations (calf thymus DNA [1]): strong radioprotection characteristics even at low concentrations; Radiation-induced generation of low mol. wt. fragments (calf thymus DNA [1]): completely prevented; Radiation induced generation of low mol. wt. fragments (calf thymus DNA [1]): completely prevented
O=c1c(O)c(-c2ccc(O)c(O)c2)oc2cc(O)cc(O)c12 [quercetin] |  |  |  |  | Hypochlorite-induced damage to genomic DNA (calf thymus DNA [3]): comparable
COc1cc(CC(CO)C(CO)Cc2ccc(O)c(OC)c2)ccc1O (centres unmarked) [SECO, 2,3-bis (3-methoxy-4-hydroxybenzyl) butane-1,4-diol] |  |  |  | equipotent | 
O=C1OC[C@H](Cc2cccc(O)c2)[C@H]1Cc1cccc(O)c1 [EL, enterolactone] |  |  |  | equipotent | DNA adduct levels (human epithelial cells): decreased
OC[C@H](Cc1cccc(O)c1)[C@H](CO)Cc1cccc(O)c1 [ED, enterodiol] |  |  |  | equipotent | DNA adduct levels (human epithelial cells): decreased
COc1cc(C[C@@H](CO[C@@H]2O[C@H](CO)[C@@H](O)[C@H](O)[C@H]2O)[C@H](CO[C@@H]2O[C@H](CO)[C@@H](O)[C@H](O)[C@H]2O)Cc2ccc(O)c(OC)c2)ccc1O [SDG (commercial), Secoisolariciresinol Diglucoside] | 4.01 | radioprotective properties | comparable potency |  | 
